Laboratory results reported in patent US12458637B2, “Targeting WNK1 in blood cancers” (Københavns Universitet, priority 2019, dated 2025).
“Also recorded” adds a separate entry of the source.

Key:
MA9 cells [1] = assay: CellTiter-Glo viability assay, MA9 cells; type: cell-based; details: Mus musculus, 72 hours
Method: (§1) Dose-response curves were generated using the CellTiter-Glo® assay (Promega: G7570). Cells were seeded in triplicate in round bottom 96 well plates in the presence of varying concentrations of “Compound 12”. After 72 hours the number of viable cells in the cultures were measured using the CellTiter-Glo®. IC50 values were calculated using the Prism software (GraphPad: Prism 7 for Mac OS X).

MEFs = assay: CellTiter-Glo viability assay, mouse embryonic fibroblasts; type: cell-based
Method: as §1

blood cancer cell lines = assay: CellTiter-Glo viability assay, human cell lines; type: cell-based; details: FIG. 5
Method: Dose-response curves were generated using the CellTiter-Glo® assay (Promega: G7570). BJ-tert, U2OS, MOLM13, THP1, Monomac, MMS1, KMS18, KMS11, MSTo, and H226, cells were seeded in triplicate in round bottom 96 well plates in the presence of varying concentrations of “Compound 12”. After 72 hours the number of viable cells in the cultures were measured using the CellTiter-Glo®. IC50 values were calculated using the Prism software (GraphPad: Prism 7 for Mac OS X). The experiment show the IC50 values for the different human cell lines (FIG. 5).

WNK1 (P-OXSR1) = assay: Western blot of Oxsr1 and P-Oxsr1 in MA9 cells; type: cell-based, mouse; details: MA9 cells treated for 3 hours
Method: Murine MLL-AF9 transformed leukemic cells (MA9) were treated for 3 hours with different concentrations of “Compound 12”. Treated cells were counted and lysed in 1×LSB buffer and an equal to 100.000 cells were loaded on each lane of a 10% SDS-Page gel.
Gels were transferred to nitrocellulose membranes probed with sheep-anti-OXSR1 [S336B] or sheep-anti-P-OXSR1 [S688B] (both from University of Dundee). Binding of the primary antibody was on detected light sensitive films, using rabbit peroxidase conjugated anti-sheep IgG antibody (1 in 30.000 dilution, Abcam: ab6900) followed by enhanced chemiluminescence (Pierce ECL Plus, ThermoFisher: 34577) (FIG. 4B).

MA9 cells [2] = assay: Growth curves of MA9 cells; type: cell-based, mouse; details: varying concentrations, growth curve, FIG. 4C
Method: MA9 cell cultures were grown in triplicate in 24 well plates in the presence of varying concentrations of “Compound 12”. Cells were plated with a density of 50.000 cells per well after which they were counted and replated every 3 days.

[3] = test system: MLL-AF9 translocated leukemia; assay: In vivo treatment of leukemic mice (MA9 transplanted); parameters: species or system mouse; details: daily injection of 1.8 mg in sun flower oil, mice transplanted with MA9 cells
Method: 1×10^4 leukemic cells were injected into the tail vein of sub-lethally irradiated (450 rad) BL6.SJL mice. Two days after transplantation the mice were injected with 1.8 mg “Compound 12” dissolved into 200 μL sun flower oil or sun flower oil alone (control). A total of 26 mice were used in the experiment, where 14 received oil alone and 12 received “Compound 12”.
The injections were continued daily for a period of 20 days.

phosphorylated OXSR1 = details: in cells, Yamada et al., 2017; cited from earlier work
blood pressure = details: 30 mg/kg single oral dose, rodent hypertension models; cited from earlier work
[4] = 30 mg/kg single oral dose; cited from earlier work
[5] = Yamada et al., 2017; cited from earlier work

SMILES: [2H]C([2H])([2H])Nc1nc(-c2cc(C(=O)N3CCN(Cc4ccc(Cl)cc4)CC3)c(Cl)cn2)cs1 [Compound 12, (5-Chloro-2-(2-((methyl-d3)amino)thiazol-4-yl)-pyridin-4-yl)(4-(4-chlorobenzyl)piperazin-1-yl)methanone]
- IC50 (MA9 cells [1]): ~1000 nM
- IC50 (MEFs; Mus musculus, Fibroblast, viability, 72 hours, CellTiter-Glo): > 20000 nM
- IC50 in MEFs compared with MA9 cells (MEFs; viability assay, FIG. 4A): significantly higher
- Sensitivity of blood cancer cell lines compared with diploid fibroblasts (blood cancer cell lines; human cell lines vs BJ tert): significantly more sensitive
- IC50 (blood cancer cell lines; viability, 72 hours, human cell lines, read-out: IC50 of most of the blood cancer cell lines): ~1000 nM
- Inhibition of WNK1 (phosphorylated OXSR1, Western blot) (WNK1 (P-OXSR1)): inhibits WNK1 in leukemic cells
- Growth / proliferation of MA9 cells (MA9 cells [2]): dose-dependent inhibition; also recorded: inhibits growth; also recorded: attenuated growth
- Lifespan of leukemic mice [3]: significantly extend the life-time; also recorded: increases their lifespan; also recorded: increased lifespan
- EC50 (phosphorylated OXSR1): 590 nM
- Blood pressure (blood pressure): some reduction in blood pressure
- Concentration [4]: 2000 nM
- Toxicity in mice [5]: low toxicity
